Data on nine compounds can be found in PMC2363969, “gp100/pmel17 and tyrosinase encode multiple epitopes recognized by Th1-type CD4+T cells” (British Journal of Cancer, 2001).

One assay has as its target HLA-DRB1*0401 (Homo sapiens, UniProt P01903+P01911, A100K/A169T/F76Y/I96L/K127E/L162R/M171V/N62H/P40V/Q125Y/R42H/S133A/S149N/S66Y/V115G/V209L/W38E). In words: solid-state competitive-binding assay, purified HLA-DR4.
In assay [1] the test system is CD4+ T cells. The assay is described as follows: IFN-γ ELISPOT, freshly-isolated peripheral blood CD4+ T cells vs peptide-pulsed T2.DR4. The following applies: positive if above normal donor mean + 3 S.D.; for T cell responses evaluated in MEL (of 5): number of responding patients: HLA-DR4+ melanoma patients with active disease, n = 5, 20 h IFN-γ ELISPOT; for T cell responses evaluated in MEL-NED (of 11): number of responding patients: HLA-DR4+ melanoma patients with no evidence of disease, n = 11, 20 h IFN-γ ELISPOT. It is filed as cell-based, human.

For assay [2], the system named is CD4+ T cells. The assay is described as follows: IFN-γ ELISPOT, normal donor CD4+ T cells after in vitro stimulation with peptide-pulsed autologous DC. The following applies: for T cell responses evaluated in ND-IVS (of 10): number of responding normal donors: normal HLA-DR4+ donors, n = 10, after 2 rounds of in vitro stimulation with autologous DC pulsed with peptide, IFN-γ ELISPOT. It is filed as cell-based, human.

The target of a further assay is HLA-DRB1*0404 (Homo sapiens, UniProt P01903+P01911, A100R/A169T/F76Y/I96L/K127E/L162R/M171V/N62H/P40V/Q125Y/R42H/S133A/S149N/S66Y/V209L/W38E). The assay is described as follows: solid-state competitive-binding assay, purified HLA-DR4.
[3] abbreviates: read-out: Binding affinity (IC50) DRB1*0401.
[4] abbreviates: read-out: Binding affinity (IC50) DRB1*0404.

Read-outs that look alike come from different tables or passages of the source. Where a SMILES comes first, the peptide text is derived from it. Where no end group is shown, it is not given here. A value given as a limit tells only on which side of the number the result lay.

The IC50 is the concentration that gives 50% inhibition.

Consider `CC[C@H](C)[C@H](NC(=O)[C@H](CCC(N)=O)NC(=O)[C@H](Cc1c[nH]cn1)NC(=O)[C@H](CC(C)C)NC(=O)[C@@H](NC(=O)[C@H](CC(C)C)NC(=O)[C@H](CCC(N)=O)NC(=O)[C@H](CS)NC(=O)[C@H](C)NC(=O)[C@@H]1CCCN1C(=O)[C@H](CO)NC(=O)[C@@H]1CCCN1C(=O)[C@H](CC(C)C)NC(=O)[C@@H](NC(=O)[C@@H]1CCCN1C(=O)[C@H](CCC(N)=O)NC(=O)[C@H](CS)NC(=O)[C@@H](N)CC(C)C)C(C)C)C(C)C)C(=O)N[C@@H](CC(C)C)C(=O)N[C@@H](CCCCN)C(=O)NCC(=O)NCC(=O)O` [gp100/pmel17540-561] (H-LCQPVLPSPACQLVLHQILKGG-OH), for which the IC50 on HLA-DRB1*0401 (setting [3]) is above 10 µM.
Consider `CC(C)[C@H](NC(=O)[C@H](CO)NC(=O)[C@@H]1CCCN1C(=O)[C@@H](N)Cc1c[nH]c2ccccc12)C(=O)N[C@@H](Cc1ccccc1)C(=O)N[C@@H](Cc1ccc(O)cc1)C(=O)N[C@@H](CC(N)=O)C(=O)N[C@@H](CCCNC(=N)N)C(=O)N[C@H](C(=O)N[C@@H](CS)C(=O)N[C@@H](CCC(N)=O)C(=O)N[C@@H](CS)C(=O)N[C@@H](CO)C(=O)NCC(=O)N[C@@H](CC(N)=O)C(=O)N[C@@H](Cc1ccccc1)C(=O)O)[C@@H](C)O` [tyrosinase80-95] (H-WPSVFYNRTCQCSGNF-OH; N-terminus and C-terminus assumed), for which, in the assay with CD4+ T cells [1], the “T cell responses evaluated in MEL (of 5): number of responding patients” value is reported as 0 patients (of 5) and the “T cell responses evaluated in MEL-NED (of 11): number of responding patients” value (from here on “T cell responses evaluated in MEL-NED”) is listed as 0 patients (of 11). The “T cell responses evaluated in ND-IVS (of 10): number of responding normal donors” value (“T cell responses evaluated in ND-IVS” below) with CD4+ T cells [2] was 0 donors (of 10).
Take ALHIYMDGTMSQVQGSA [tyrosinase365-381D]: the IC50 was 0.017 µM at HLA-DRB1*0401 and 0.031 µM at HLA-DRB1*0404.
As for “IVGILLVLMAVVLASLIYRRR [gp100599-619 /pmel17606-626]”, at HLA-DRB1*0401 (setting [3]), the IC50 was above 10 µM. Moreover, the IC50 on HLA-DRB1*0404 (setting [4]) was above 10 µM. Further, in the assay on CD4+ T cells [1], the “T cell responses evaluated in MEL (of 5): number of responding patients” value is recorded as 0 patients (of 5) and the “T cell responses evaluated in MEL-NED” value is 0 patients (of 11). Besides, the “T cell responses evaluated in ND-IVS” value in the assay on CD4+ T cells [2] is recorded as 0 donors (of 10).
Turning to “KRCLLHLAVIGALLAVGATKV [gp100/pmel176-26]”, the IC50 at HLA-DRB1*0401 (setting [3]) was above 10 µM.
Regarding “PGPVTAQVVLQAAIPLTSCGSS [gp100/pmel17283-304]”, the IC50 at HLA-DRB1*0404 (setting [4]) was determined as 0.051 µM.
“VSGLSIGTGRAMLGTHTMEVTVY [gp100/pmel17167-189]”: on HLA-DRB1*0401 (setting [3]), the half-maximal inhibitory concentration (IC50) is above 10 µM.
As to “VYVWKTWGQYWQVLGGPVS [gp100/pmel17150-168]”, the IC50 on HLA-DRB1*0401 is above 10 µM. In addition, the IC50 at HLA-DRB1*0404 is above 10 µM. In the assay on CD4+ T cells [1], the “T cell responses evaluated in MEL (of 5): number of responding patients” value is 0 patients (of 5) and the “T cell responses evaluated in MEL-NED” value is given as 0 patients (of 11). In addition, the “T cell responses evaluated in ND-IVS” value in the assay on CD4+ T cells [2] was 0 donors (of 10).
For the compound “WMHYYVSMDALLGGSEI [tyrosinase178-194, synthetic peptide derived from tyrosinase]”, in the assay on CD4+ T cells [1], the “T cell responses evaluated in MEL (of 5): number of responding patients” value is on record as 1 patients (of 5) and the “T cell responses evaluated in MEL-NED” value is 1 patients (of 11). The “immunogen grade on an arbitrary scale” value in the assay on CD4+ T cells [2] (in both melanoma patients and in vitro stimulated normal donors, weak / moderate / strong) is recorded as “moderate”. Further, in the assay with CD4+ T cells [2], the “T cell responses evaluated in ND-IVS” value is on record as 3 donors (of 10).
